According to article PMC11189555, “Aryl amino acetamides prevent Plasmodium falciparum ring development via targeting the lipid-transfer protein PfSTART1” (Nature Communications, 2024):
Where “and” joins values, the source holds several entries; their conditions need not be identical. Identical values can stand only once.

How the values were obtained:
Assay type in all cases: cell-based, Plasmodium falciparum
[1] = system: M-833 resistant parasite populations (PopC, PopD, PopE); test: Growth inhibition of M-833 resistant populations (LDH)
Procedure: After three cycles of drug treatment, three parasite populations were identified as less susceptible to the compound and their growth in serially diluted M-833 after 72 h was measured by lactate dehydrogenase (LDH) activity assays. […] The two most resistant populations (PopD and PopE) were further cloned out by limiting dilution. […] To identify the target of M-833, genomic DNA was extracted from the clonal lines of PopD and PopE and subjected to whole genome sequencing using MinION technology and compared to clonal 3D7 parental parasites. This identified 14 non-synonymous single nucleotide polymorphisms (SNP) across nine different genes when compared to the 3D7 parental strain (Supplementary Data 1). The two genes that had SNPs present across all resistant clones were the P. falciparum liver stage antigen 1 gene (PF3D7_1036400) and P. falciparum stAR-related lipid transfer protein (PF3D7_0104200, PFA0210c; pfstart1). The former is not expressed in the blood stage[19]–[21] and comprises a large central repeat region which is problematic for variant calling. […] Collectively, all the identified mutations (N309K, I224F, N330K) were found within the central conserved START domain and predicted to face the lipid-binding pocket (Fig. 1C).
The drug was then removed, and parasites were allowed to recover. Another cycle of drug treatment (3 μM M-833) was then resumed. The resistant lines were cloned out by limiting dilution (diluting the culture into a 96-well plate to achieve an average of ~0.3 parasites per well), prior to growth inhibition assays and genomic DNA (gDNA) extraction (DNeasy Blood and Tissue kit (Qiagen)[18].
Parasite growth assays with inhibitory compounds were performed as per[11] and are fully described in the Supplementary Information. […]
and compound 4. Note that M-833 was first purchased from MolPort (MolPort -002-267-916) then made in-house at WEHI: the differences observed in EC50s across experiments are attributed to the different batches of M -833. For some experiments, 0, 0.25 or 2.5 mM of glucosamine (GlcN) was also added. Experiments were set up in technical duplicates or triplicates. Following a freeze -thaw cycle, lactate dehydrogenase (LDH) activity was assessed as an indicator of parasite growt h 5. 30 μL of parasite culture was incubated for 30 min in the dark with 75 μL Malstat mixture (0.1 M Tris pH 9.0, 20 g/L lactic acid, pH 7.5, 0.2% Triton-X100, 0.5 g/L acetylpyridine adenine dinucleotide (APAD, Sigma), 200 μg/mL nitroblue tetrazolium (NBT; Sigma), 1 μg/mL phenozine ethosulfate (PES; Sigma)). Absorbance was then measured at 650 nm, transformed using the formula below, plotted against the logarithm of the concentrations, and a non-linear regression (log(inhibitor) vs. response, variable slope) was calculated using GraphPad Prism to assess the half-inhibitory […]
Growth inhibition % = (1 − average(sample)− average(uRBC)) ∗ 100 […]
The DMSO samples were also used to assess growth of parasite in the presence of 0.25 and 2.5 mM GlcN (normalised by DMSO in 0 mM GlcN). […]

[2] = system: male gametes from mature stage V gametocytes; test: Dual gamete formation assay: male gamete formation (exflagellation); conditions: for inhibition of male gamete formation: 1 µM, 48 h treatment of mature gametocytes; for Dual Gamete Formation Assay: Male at 1 µM, Mean: mean of 4 plates
Procedure: (§1) The compounds were tested in the P. falciparum Dual Gamete Formation Assay (PfDGFA)[84], fully described in the Supplementary Information. […]
(§2) Dual gamete formation assays. The compounds were tested in the P. falciparum Dual Gamete Formation Assay (PfDGFA) 13. Briefly, mature stage V gametocytes were exposed to compounds for 48 h at 37°C in 384 well plates in gametocyte culture medium (RPMI 1640 supplemented with 25 mM HEPES, 50 μg/mL hypoxanthine, 4.8 g/L NaHCO3, 2 mM L-glutamine, 5% pooled type AB serum, 0.5% Albumax II (Gibco)) under a 1% O2, 3% CO2, 96% N2 environment. Gametogenesis was then triggered by the addition of 10 μL ookinete medium (gametocyte culture medium supplemented with 100 μM xanthurenic acid and 0.27 µg/mL Cy3-labelled anti-Pfs25 antibody) to each well at room temperature. Plates were then cooled on a metal block at 4°C for four min to ensure even cooling and then stabilised for a further 4 min at 28°C. At 20 min post-induction, male gametogenesis was recorded in each well by automated brightfield microscopy using a x4 objective lens and 1.5x magnifier (x6 effective magnification). Afterward, plates were incubated in the dark at room temperature for 24 h and then female gametogenesis recorded in each well by automated fluorescence microscopy (anti-Pfs25-positive cells). All experiments were performed in quadruplicate with DMSO and cabamiquine (DDD107498)17 as negative and positive controls respectively. All data was evaluated in comparison to the positive and negative controls to calculate percentage inhibition of male and female gametocytes, and dose response analysis and IC50 calculation performed using GraphPad Prism. […]

[3] = system: female gametes from mature stage V gametocytes; test: Dual gamete formation assay: female gamete formation (Pfs25 expression); conditions: for inhibition of female gamete formation: 1 µM, 48 h treatment of mature gametocytes; for Dual Gamete Formation Assay: Female at 1 µM, Mean: mean of 4 plates
Procedure: as §1, §2

ring-stage 3D7 parasites = test: Stage arrest and recovery assay (SYBR Green flow cytometry, Giemsa smears); conditions: for growth after washout of compound: 48 h treatment, then washout, 6 days post washout (T = 192 h); for ring morphology after 48 h / schizont development at 36 h / impact on already-developed rings or trophozoites: M-833 2 µM, W-991 60 nM from ring stage; for impact on already-developed rings or trophozoites: one cycle; for Parasitemia derived from flow cytometry: replicates 1 and 2
Procedure: Parasites were synchronised using a Percoll density gradient (Cytiva) combined with 5% sorbitol lysis. Ring-stage parasites at 0-4 hours post-invasion at 2% parasitemia and haematocrit were then added to 2 µM M-833, 60 nM W-991 or 0.02% DMSO and incubated at 37 °C with compound replenished every 24 h. After 48 h, samples of M-833 and W-991-treated parasites were washed x 3 in complete RPMI to remove the compound and put back into culture for the remainder of the experiment. For the following two cycles of growth, samples were taken every 24 h to monitor recovery. Upon completion of time points, fixed cells were stained with 2.5 x SYBR Green (Invitrogen) in PBS, washed once in PBS, and analysed on the Attune Flow Cytometer (ThermoFisher Scientific). Giemsa-stained blood smears were visualised and imaged using a Nikon Eclipse E600 microscope.

## Cc1cc(Cl)c(S(=O)(=O)N2CCCC2)cc1OCC(=O)NC1CCCCC1 [M-833]
[1]; Population C, M-833 0.0390625 uM
  Growth (Abs) Normalised to DMSO: 99.9117
[1]; Population C, M-833 0.078125 uM
  Growth (Abs) Normalised to DMSO: 102.105
[1]; Population C, M-833 0.15625 uM
  Growth (Abs) Normalised to DMSO: 99.9558
[1]; Population C, M-833 0.3125 uM
  Growth (Abs) Normalised to DMSO: 98.7636
[1]; Population C, M-833 0.625 uM
  Growth (Abs) Normalised to DMSO: 92.6626
[1]; Population C, M-833 1.25 uM
  Growth (Abs) Normalised to DMSO: 74.9632
[1]; Population C, M-833 2.5 uM
  Growth (Abs) Normalised to DMSO: 42.7878
[1]; Population C, M-833 5 uM
  Growth (Abs) Normalised to DMSO: 8.5443
[1]; Population C, M-833 10 uM
  Growth (Abs) Normalised to DMSO: 1.435
[1]; Population D, M-833 0.0390625 uM
  Growth (Abs) Normalised to DMSO: 100.282
[1]; Population D, M-833 0.078125 uM
  Growth (Abs) Normalised to DMSO: 101.574
[1]; Population D, M-833 0.15625 uM
  Growth (Abs) Normalised to DMSO: 100.622
[1]; Population D, M-833 0.3125 uM
  Growth (Abs) Normalised to DMSO: 100.758
[1]; Population D, M-833 0.625 uM
  Growth (Abs) Normalised to DMSO: 96.1318
[1]; Population D, M-833 1.25 uM
  Growth (Abs) Normalised to DMSO: 94.9752
[1]; Population D, M-833 2.5 uM
  Growth (Abs) Normalised to DMSO: 84.3814
[1]; Population D, M-833 5 uM
  Growth (Abs) Normalised to DMSO: 63.806
[1]; Population D, M-833 10 uM
  Growth (Abs) Normalised to DMSO: 31.8884
[1]; Population E, M-833 0.0390625 uM
  Growth (Abs) Normalised to DMSO: 101.958
[1]; Population E, M-833 0.078125 uM
  Growth (Abs) Normalised to DMSO: 104.075
[1]; Population E, M-833 0.15625 uM
  Growth (Abs) Normalised to DMSO: 104.451
[1]; Population E, M-833 0.3125 uM
  Growth (Abs) Normalised to DMSO: 103.313
[1]; Population E, M-833 0.625 uM
  Growth (Abs) Normalised to DMSO: 104.846
[1]; Population E, M-833 1.25 uM
  Growth (Abs) Normalised to DMSO: 106.755
[1]; Population E, M-833 2.5 uM
  Growth (Abs) Normalised to DMSO: 98.4077
[1]; Population E, M-833 5 uM
  Growth (Abs) Normalised to DMSO: 90.3966
[1]; Population E, M-833 10 uM
  Growth (Abs) Normalised to DMSO: 68.0744
[1]; cloned PopD and PopE lines, Fig 1B
  increase in EC50 compared to 3D7 parasites: 17 fold
[2]
  inhibition of male gamete formation: no inhibition
  Dual Gamete Formation Assay: Male at 1 µM, Mean: 0.872
[3]
  inhibition of female gamete formation: no inhibition
  Dual Gamete Formation Assay: Female at 1 µM, Mean: -1.423
ring-stage 3D7 parasites
  growth after washout of compound: able to resume normal growth
  ring morphology after 48 h: presence of dysmorphic rings
  schizont development at 36 h: slight developmental delay of schizonts
  impact on already-developed rings or trophozoites: did not indicate any impact
ring-stage 3D7 parasites; timepoint 0, no washout
  Parasitemia derived from flow cytometry: 2.571 and 1.962
ring-stage 3D7 parasites; timepoint 0, washout
  Parasitemia derived from flow cytometry: 1.962 and 2.571
ring-stage 3D7 parasites; timepoint 48, no washout
  Parasitemia derived from flow cytometry: 11.6017 and 7.415
ring-stage 3D7 parasites; timepoint 48, washout
  Parasitemia derived from flow cytometry: 7.415 and 11.6017
ring-stage 3D7 parasites; timepoint 96, no washout
  Parasitemia derived from flow cytometry: 6.175 and 3.315
ring-stage 3D7 parasites; timepoint 96, washout
  Parasitemia derived from flow cytometry: 2.881 and 5.202
ring-stage 3D7 parasites; timepoint 144, no washout
  Parasitemia derived from flow cytometry: 3.175 and 1.778
ring-stage 3D7 parasites; timepoint 144, washout
  Parasitemia derived from flow cytometry: 2.202 and 4.604
ring-stage 3D7 parasites; timepoint 192, no washout
  Parasitemia derived from flow cytometry: 2.332 and 1.369
ring-stage 3D7 parasites; timepoint 192, washout
  Parasitemia derived from flow cytometry: 3.268 and 8.096
ring-stage 3D7 parasites; timepoint 240, no washout
  Parasitemia derived from flow cytometry: 2.528 and 1.343
ring-stage 3D7 parasites; timepoint 240, washout
  Parasitemia derived from flow cytometry: 6.874 and 13.4537

## O=C(CNc1ccc(Cl)c(S(=O)(=O)N2CCOCC2)c1)Nc1ccc(F)c(Cl)c1 [compound 2, reference compound]
[1]; Fig 4B
  activity against M-833-resistant populations: cross-resistant

## CC(C)(Nc1ccc(Cl)c(S(=O)(=O)N2CCOCC2)c1)C(=O)Nc1ccc(F)c(Cl)c1 [W-991]
[2]
  inhibition of male gamete formation: no inhibition
  Dual Gamete Formation Assay: Male at 1 µM, Mean: -1.328
[3]
  inhibition of female gamete formation: no inhibition
  Dual Gamete Formation Assay: Female at 1 µM, Mean: -2.932
ring-stage 3D7 parasites
  growth after washout of compound: able to resume normal growth
  ring morphology after 48 h: presence of dysmorphic rings
  schizont development at 36 h: slight developmental delay of schizonts
  impact on already-developed rings or trophozoites: did not indicate any impact
ring-stage 3D7 parasites; 60 h time point
  reduction in parasitemia vs DMSO (Giemsa-stained smears): 1.3 fold
ring-stage 3D7 parasites; timepoint 0, no washout
  Parasitemia derived from flow cytometry: 2.571 and 1.962
ring-stage 3D7 parasites; timepoint 0, washout
  Parasitemia derived from flow cytometry: 2.571 and 1.962
ring-stage 3D7 parasites; timepoint 48, no washout
  Parasitemia derived from flow cytometry: 11.0007 and 8.084
ring-stage 3D7 parasites; timepoint 48, washout
  Parasitemia derived from flow cytometry: 11.0007 and 8.084
ring-stage 3D7 parasites; timepoint 96, no washout
  Parasitemia derived from flow cytometry: 5.782 and 3.338
ring-stage 3D7 parasites; timepoint 96, washout
  Parasitemia derived from flow cytometry: 5.455 and 2.599
ring-stage 3D7 parasites; timepoint 144, no washout
  Parasitemia derived from flow cytometry: 3.388 and 1.894
ring-stage 3D7 parasites; timepoint 144, washout
  Parasitemia derived from flow cytometry: 3.848 and 1.766
ring-stage 3D7 parasites; timepoint 192, no washout
  Parasitemia derived from flow cytometry: 2.379 and 1.388
ring-stage 3D7 parasites; timepoint 192, washout
  Parasitemia derived from flow cytometry: 4.263 and 2.036
ring-stage 3D7 parasites; timepoint 240, no washout
  Parasitemia derived from flow cytometry: 2.587 and 1.356
ring-stage 3D7 parasites; timepoint 240, washout
  Parasitemia derived from flow cytometry: 6.983 and 2.934
